Experimental data: US20190292155A1, “THERAPEUTIC INHIBITORY COMPOUNDS” (LifeSci Pharmaceuticals, Inc., priority 2016, published 2019)
Read-outs that look alike come from different tables or passages of the source.

Target: T1, human complement factor D (Homo sapiens, UniProt P00746)
T1 construct: purchased R&D Systems 1824-SE
Assay: In vitro enzyme inhibition of human complement factor D (Z-Lys-SBzl/DTNB, A405)
Assay type: biochemical
Method: The ability of the compounds disclosed herein to inhibit human complement factor D inhibitory activity was quantified according to the 12-step protocol provided below. • 1. Prepare assay buffer: 50 mM Tris/HCl, pH 7.5, 1 M NaCl. • 2. […] Then dilute the serial concentrations of Nafamostat Mesilate 20-fold in assay buffer. • 3. […] 0.5% DMSO was in each well finally. • 4. […] Add 10 μl diluted test compounds duplicated into the 96-well plate. […] 0.5% DMSO was in each well finally. • 6. Dilute 20 mM substrate Z-Lys-SBzl (Bachem, Cat# M-1300) to 200 μM in assay buffer with 200 μM DTNB (Sigma, Catalog# D8130). • 7. […] Add 40 μl diluted Complement Factor D in the 96-well plate. • 8. Positive control well contains Complement Factor D without test compound. Negative control well contains neither Complement Factor D nor test compound. Using assay buffer, bring the total volume of all controls to 50 al. • 9. Pre-incubate the plate for 5 min at room temperature. • 10. Add 50 μl of diluted substrate/DTNB mixture into each well. […] For kinetic reading: Immediately start measuring absorbance (A405 nm) continuously and record data every 30 sec for 60 min. • 12. Data analysis • Inhibition activity of compound was evaluated by IC50. IC50 was calculated according the dose-response curve of compound fitted using GraphPadPrism with “log(inhibitor)-response (variable slope)” equation. • % inhibition was calculated by using following equation:
[formula] • Mean(NC): The average value of the negative control wells' A405 nm values. • Mean(PC): The average value of the positive control wells' A405 nm values.

[1] = biochemical assay, substrate Z-Lys-SBzl, read-out: CFD IC50

T1 sequence (P00746 26-253): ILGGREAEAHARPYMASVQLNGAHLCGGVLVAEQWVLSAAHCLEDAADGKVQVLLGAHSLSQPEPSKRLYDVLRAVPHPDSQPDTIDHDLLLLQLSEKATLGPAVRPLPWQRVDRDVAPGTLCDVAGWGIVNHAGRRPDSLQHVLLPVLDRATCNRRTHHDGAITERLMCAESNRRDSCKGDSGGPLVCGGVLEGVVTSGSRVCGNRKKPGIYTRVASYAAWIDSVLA

Row | IC50 [1] [nM] | Compound | IC50 [nM]
1 | 1000 to 10000 | CC(=O)NCCN(CC(=O)Nc1cccc(Cl)n1)C(=O)Cn1nc(C(N)=O)c2ccccc21 [Example 24, 1-(2-((2-acetamidoethyl)(2-((6-chloropyridin-2-yl)amino)-2-oxoethyl)amino)-2-oxoethyl)-1H-indazole-3-carboxamide] | –
2 | 1000 to 10000 | NC(=O)c1nn(CC(=O)N(CC(=O)NCc2cc(Cl)c3[nH]ncc3c2)C2CC2)c2ccccc12 [Example 114, 1-(2-((2-(((7-chloro-1H-indazol-5-yl)methyl)amino)-2-oxoethyl)(cyclopropyl)amino)-2-oxoethyl)-1H-indazole-3-carboxamide] | –
3 | 1000 to 10000 | CC(CC(=O)O)N(CC(=O)NCc1cccc(Cl)c1F)C(=O)Cn1nc(C(N)=O)c2ccccc21 (stereo not drawn) [Example 74, 3-(2-(3-carbamoyl-1H-indazol-1-yl)-N-(2-((3-chloro-2-fluorobenzyl)amino)-2-oxoethyl)acetamido)butanoic acid] | –
4 | 100 to 1000 | NC(=O)n1cc(NC(=O)N(CC(=O)NCc2cccc(Cl)c2F)C2CCNC2)c2ccccc21 (stereo not drawn) [Example 52, 3-(3-(2-((3-chloro-2-fluorobenzyl)amino)-2-oxoethyl)-3-(pyrrolidin-3-yl)ureido)-1H-indole-1-carboxamide] | –
5 | 1000 to 10000 | CCOC(=O)CC(N(CC(=O)NCc1cccc(Cl)c1F)C(=O)Cn1nc(C(N)=O)c2ccccc21)C(F)(F)F (stereo not drawn) [Example 77, ethyl 3-(2-(3-carbamoyl-1H-indazol-1-yl)-N-(2-((3-chloro-2-fluorobenzyl)amino)-2-oxoethyl)acetamido)-4,4,4-trifluorobutanoate] | –
6 | > 10000 | NC(=O)c1nn(CC(=O)N(CC(=O)NCc2ccc(CO)c(Cl)c2F)C2CC2)c2ccccc12 [Example 99, 1-(2-((2-((3-chloro-2-fluoro-4-(hydroxymethyl)benzyl)amino)-2-oxoethyl)(cyclopropyl)amino)-2-oxoethyl)-1H-indazole-3-carboxamide] | –
7 | 1000 to 10000 | NC(=O)c1nn(CC(=O)N(CC(=O)NCc2cccc(C3CC3)c2F)C2CC2)c2ccccc12 [Example 127, 1-(2-(cyclopropyl(2-((3-cyclopropyl-2-fluorobenzyl)amino)-2-oxoethyl)amino)-2-oxoethyl)-1H-indazole-3-carboxamide] | –
8 | 1000 to 10000 | COC(=O)C(C)N(CC(=O)NCc1cccc(Cl)c1F)C(=O)Cn1nc(C(N)=O)c2ccccc21 (stereo not drawn) [Example 59, methyl 2-(2-(3-carbamoyl-1H-indazol-1-yl)-N-(2-((3-chloro-2-fluorobenzyl)amino)-2-oxoethyl)acetamido)propanoate] | –
9 | 100 to 1000 | CC(CC(N)=O)N(CC(=O)NCc1cccc(Cl)c1F)C(=O)Cn1nc(C(N)=O)c2ccccc21 (stereo not drawn) [Example 76, 1-(2-((4-amino-4-oxobutan-2-yl)(2-((3-chloro-2-fluorobenzyl)amino)-2-oxoethyl)amino)-2-oxoethyl)-1H-indazole-3-carboxamide] | –
10 | 1000 to 10000 | NC(=O)c1nn(CC(=O)N(CC(=O)Nc2cccc(Cl)n2)C2CCNCC2)c2ccccc12 [Example 17, 1-(2-((2-((6-chloropyridin-2-yl)amino)-2-oxoethyl)(piperidin-4-yl)amino)-2-oxoethyl)-1H-indazole-3-carboxamide] | –
11 | 100 to 1000 | NC(=O)c1nn(CC(=O)N(CC(=O)NCc2ccc(F)c(Cl)c2F)C2CC2)c2ccccc12 [Example 83, 1-(2-((2-((3-chloro-2,4-difluorobenzyl)amino)-2-oxoethyl)(cyclopropyl)amino)-2-oxoethyl)-1H-indazole-3-carboxamide] | –
12 | 100 to 1000 | CC(=O)c1nc(NC(=O)N(CC(=O)NCc2cccc(Cl)c2F)C2CC2)c2ccccn12 [Example 141, 2-(3-(3-acetylimidazo[1,5-a]pyridin-1-yl)-1-cyclopropylureido)-N-(3-chloro-2-fluorobenzyl)acetamide] | –
13 | 1000 to 10000 | CC(O)c1nn(CC(=O)N(CC(=O)NCc2cccc(Cl)c2F)C2CC2)c2ccccc12 (stereo not drawn) [Example 49, N-(2-((3-chloro-2-fluorobenzyl)amino)-2-oxoethyl)-N-cyclopropyl-2-(3-(1-hydroxyethyl)-1H-indazol-1-yl)acetamide] | –
14 | – | NC(=O)c1nn(CC(=O)N(CC(=O)NCc2cccc(Cl)c2F)C2CC2)c2ccc(F)cc12 [Example 78, 1-(2-((2-((3-chloro-2-fluorobenzyl)amino)-2-oxoethyl)(cyclopropyl)amino)-2-oxoethyl)-5-fluoro-1H-indazole-3-carboxamide] | 100 to 1000
15 | 100 to 1000 | CC1CC1N(CC(=O)NCc1cccc(Cl)c1F)C(=O)Cn1nc(C(N)=O)c2ccccc21 (stereo not drawn) [Example 63, 1-(2-((2-((3-chloro-2-fluorobenzyl)amino)-2-oxoethyl)(2-methylcyclopropyl)amino)-2-oxoethyl)-1H-indazole-3-carboxamide] | –
16 | 100 to 1000 | CC(CCF)N(CC(=O)NCc1cccc(Cl)c1F)C(=O)Cn1nc(C(N)=O)c2ccccc21 (stereo not drawn) [Example 60, 1-(2-((2-((3-chloro-2-fluorobenzyl)amino)-2-oxoethyl)(4-fluorobutan-2-yl)amino)-2-oxoethyl)-1H-indazole-3-carboxamide] | –
17 | 1000 to 10000 | O=C(CN(C(=O)Cn1nc(-c2ncc[nH]2)c2ccccc21)C1CC1)NCc1cccc(Cl)c1F [Example 98, 2-(3-(1H-imidazol-2-yl)-1H-indazol-1-yl)-N-(2-((3-chloro-2-fluorobenzyl)amino)-2-oxoethyl)-N-cyclopropylacetamide] | –
18 | 100 to 1000 | NC(=O)c1nn(CC(=O)N(CC(=O)NCc2cc(Cl)cc3ccoc23)C2CC2)c2ccccc12 [Example 110, 1-(2-((2-(((5-chlorobenzofuran-7-yl)methyl)amino)-2-oxoethyl)(cyclopropyl)amino)-2-oxoethyl)-1H-indazole-3-carboxamide] | –
19 | 1000 to 10000 | NC(=O)c1nn(CC(=O)N(CC(=O)Nc2cccc(Cl)n2)C2CNC2)c2ccccc12 [Example 22, 1-(2-(azetidin-3-yl(2-((6-chloropyridin-2-yl)amino)-2-oxoethyl)amino)-2-oxoethyl)-1H-indazole-3-carboxamide] | –
20 | > 10000 | C[C@@H](C(=O)NCc1cccc(Cl)c1F)N(C(=O)Cn1nc(C(N)=O)c2ccccc21)C1CC1 [Example 39, (S)-1-(2-((1-((3-chloro-2-fluorobenzyl)amino)-1-oxopropan-2-yl)(cyclopropyl)amino)-2-oxoethyl)-1H-indazole-3-carboxamide] | –
21 | 100 to 1000 | NC(=O)n1cc(CC(=O)N(CC(=O)NCc2cccc(Cl)c2F)C2CC2)c2ccccc21 [Example 41, 3-(2-((2-((3-chloro-2-fluorobenzyl)amino)-2-oxoethyl)(cyclopropyl)amino)-2-oxoethyl)-1H-indole-1-carboxamide] | –
22 | 100 to 1000 | CC(=O)c1nc(CC(=O)N(CC(=O)NCc2cccc(Cl)c2F)C2CC2)n2ccccc12 [Example 48, 2-(1-acetylimidazo[1,5-a]pyridin-3-yl)-N-(2-((3-chloro-2-fluorobenzyl)amino)-2-oxoethyl)-N-cyclopropylacetamide] | –
23 | 1000 to 10000 | NC(=O)c1cc(C(=O)O)n(CC(=O)N(CC(=O)NCc2cccc(Cl)c2F)C2CC2)n1 [Example 44, 3-carbamoyl-1-(2-((2-((3-chloro-2-fluorobenzyl)amino)-2-oxoethyl)(cyclopropyl)amino)-2-oxoethyl)-1H-pyrazole-5-carboxylic acid] | –
24 | 100 to 1000 | NC(=O)c1nc(CC(=O)N(CC(=O)NCc2cccc(Cl)c2F)C2CC2)c2ccccn12 [Example 138, 1-(2-((2-((3-chloro-2-fluorobenzyl)amino)-2-oxoethyl)(cyclopropyl)amino)-2-oxoethyl)imidazo[1,5-a]pyridine-3-carboxamide] | –
